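Five concentrations, 48 hours, 96-well plates. The concentration for 50% growth inhibition is given as GI50. At the TGI there is no net growth.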
What was measured:
Assay in all cases: inhibition of tumour cell growth, NCI panel, 48 h
NCI-H460 lung = tested on: NCI-H460 lung
T-47D breast = tested on: T-47D breast
ACHN renal = tested on: ACHN renal
A498 renal = tested on: A498 renal
HCC-2998 colon = tested on: HCC-2998 colon
SF-539 CNS = tested on: SF-539 CNS
HCT-15 colon = tested on: HCT-15 colon
SK-MEL-28 melanoma = tested on: SK-MEL-28 melanoma
HOP-92 NSCLC = tested on: HOP-92 NSCLC
M14 melanoma = tested on: M14 melanoma
U251 CNS = tested on: U251 CNS
NCI-H522 lung = tested on: NCI-H522 lung
SN12C renal = tested on: SN12C renal
LOX IMVI melanoma = tested on: LOX IMVI melanoma
EKVX NSCLC = tested on: EKVX NSCLC
MDA-MB-468 breast = tested on: MDA-MB-468 breast
OVCAR-4 ovarian = tested on: OVCAR-4 ovarian
UACC-62 melanoma = tested on: UACC-62 melanoma
COLO 205 colon = tested on: COLO 205 colon
NCI/ADR-RES ovarian = tested on: NCI/ADR-RES ovarian
HCT-116 colon = tested on: HCT-116 colon
MDA-MB-435 = tested on: MDA-MB-435
HT29 colon = tested on: HT29 colon
SR leukemia = tested on: SR leukemia
CCRF-CEM leukemia = tested on: CCRF-CEM leukemia
RXF 393 renal = tested on: RXF 393 renal
SF-295 CNS = tested on: SF-295 CNS
NCI-H226 lung = tested on: NCI-H226 lung
OVCAR-8 ovarian = tested on: OVCAR-8 ovarian
KM12 colon = tested on: KM12 colon
OVCAR-5 ovarian = tested on: OVCAR-5 ovarian
BT-549 breast = tested on: BT-549 breast
DU-145 prostate = tested on: DU-145 prostate
SF-268 CNS = tested on: SF-268 CNS
HL-60(TB) leukemia = tested on: HL-60(TB) leukemia
TK-10 renal = tested on: TK-10 renal
UO-31 renal = tested on: UO-31 renal
MDA-MB-231 breast = tested on: MDA-MB-231 breast
UACC-257 melanoma = tested on: UACC-257 melanoma
PC-3 prostate = tested on: PC-3 prostate
RPMI-8226 leukemia = tested on: RPMI-8226 leukemia
A549 NSCLC = tested on: A549 NSCLC
HOP-62 NSCLC = tested on: HOP-62 NSCLC
SK-MEL-5 melanoma = tested on: SK-MEL-5 melanoma
MCF7 breast = tested on: MCF7 breast
OVCAR-3 ovarian = tested on: OVCAR-3 ovarian
SNB-19 CNS = tested on: SNB-19 CNS
786-0 renal = tested on: 786-0 renal
SK-MEL-2 melanoma = tested on: SK-MEL-2 melanoma
CAKI-1 renal = tested on: CAKI-1 renal
HS 578T breast = tested on: HS 578T breast
NCI-H23 lung = tested on: NCI-H23 lung
MOLT-4 leukemia = tested on: MOLT-4 leukemia
MALME-3M melanoma = tested on: MALME-3M melanoma
SK-OV-3 ovarian = tested on: SK-OV-3 ovarian
SW-620 colon = tested on: SW-620 colon
K-562 leukemia = tested on: K-562 leukemia
SNB-75 CNS = tested on: SNB-75 CNS
IGROV1 ovarian = tested on: IGROV1 ovarian

## COc1ccccc1NC(=O)N/N=C/c1c[nH]c2ccccc12
NCI-H460 lung
  GI50: 0.961 µM
  TGI: 12.6 µM
T-47D breast
  GI50: 1.04 µM
  TGI: > 100 µM
ACHN renal
  GI50: 3.13 µM
  TGI: 15.8 µM
A498 renal
  GI50: 10.1 µM
  TGI: 22.4 µM
HCC-2998 colon
  GI50: 1.42 µM
  TGI: 14.2 µM
SF-539 CNS
  GI50: 0.704 µM
  TGI: 2.86 µM
HCT-15 colon
  GI50: 0.348 µM
  TGI: 12 µM
SK-MEL-28 melanoma
  GI50: 1.57 µM
  TGI: 17.6 µM
HOP-92 NSCLC
  GI50: 1.85 µM
  TGI: 10.4 µM
M14 melanoma
  GI50: 0.365 µM
  TGI: 10.8 µM
U251 CNS
  GI50: 1.45 µM
  TGI: 12.5 µM
NCI-H522 lung
  GI50: 0.177 µM
  TGI: 0.428 µM
SN12C renal
  GI50: 1.1 µM
  TGI: 12.1 µM
LOX IMVI melanoma
  GI50: 0.803 µM
  TGI: 14.9 µM
EKVX NSCLC
  GI50: 2.2 µM
  TGI: 13.9 µM
MDA-MB-468 breast
  GI50: 0.236 µM
  TGI: 2.74 µM
OVCAR-4 ovarian
  GI50: 4.34 µM
  TGI: 19.9 µM
UACC-62 melanoma
  GI50: 0.473 µM
  TGI: 12.5 µM
COLO 205 colon
  GI50: 0.766 µM
  TGI: 4.44 µM
NCI/ADR-RES ovarian
  GI50: 0.299 µM
  TGI: 1.31 µM
HCT-116 colon
  GI50: 0.405 µM
  TGI: 3.61 µM
MDA-MB-435
  GI50: 0.226 µM
  TGI: 0.647 µM
HT29 colon
  GI50: 0.427 µM
  TGI: 10.6 µM
SR leukemia
  GI50: 0.215 µM
  TGI: 12.4 µM
CCRF-CEM leukemia
  GI50: 0.379 µM
  TGI: 12.9 µM
RXF 393 renal
  GI50: 1.66 µM
  TGI: 6.45 µM
SF-295 CNS
  GI50: 0.816 µM
  TGI: 5.9 µM
NCI-H226 lung
  GI50: 4.11 µM
  TGI: 23 µM
OVCAR-8 ovarian
  GI50: 2.12 µM
  TGI: 13.9 µM
KM12 colon
  GI50: 0.574 µM
  TGI: 11 µM
OVCAR-5 ovarian
  GI50: 2.72 µM
  TGI: 15.5 µM
BT-549 breast
  GI50: 0.194 µM
  TGI: 4.69 µM
DU-145 prostate
  GI50: 2.56 µM
  TGI: 12.4 µM
SF-268 CNS
  GI50: 3.06 µM
  TGI: 20.6 µM
HL-60(TB) leukemia
  GI50: 0.304 µM
  TGI: 3.51 µM
TK-10 renal
  GI50: 4.73 µM
  TGI: 23.8 µM
UO-31 renal
  GI50: 3.28 µM
  TGI: 18.4 µM
MDA-MB-231 breast
  GI50: 0.824 µM
  TGI: 12.6 µM
UACC-257 melanoma
  GI50: 10.7 µM
  TGI: 34.8 µM
PC-3 prostate
  GI50: 1.6 µM
  TGI: 14.7 µM
RPMI-8226 leukemia
  GI50: 1.39 µM
  TGI: 6.09 µM
A549 NSCLC
  GI50: 1.22 µM
  TGI: 18.2 µM
HOP-62 NSCLC
  GI50: 3.01 µM
  TGI: 18.9 µM
SK-MEL-5 melanoma
  GI50: 1.04 µM
  TGI: 5.52 µM
MCF7 breast
  GI50: 0.423 µM
  TGI: 12.3 µM
OVCAR-3 ovarian
  GI50: 0.451 µM
  TGI: 5.47 µM
SNB-19 CNS
  GI50: 2.58 µM
  TGI: 16.1 µM
786-0 renal
  GI50: 1.23 µM
  TGI: 3.77 µM
SK-MEL-2 melanoma
  GI50: 0.67 µM
  TGI: 4.92 µM
CAKI-1 renal
  GI50: 2.53 µM
  TGI: 13.7 µM
HS 578T breast
  GI50: 3.05 µM
  TGI: 25.7 µM
NCI-H23 lung
  GI50: 1.45 µM
  TGI: 10.8 µM
MOLT-4 leukemia
  GI50: 0.381 µM
  TGI: 11.9 µM
MALME-3M melanoma
  GI50: 0.559 µM
  TGI: 16.9 µM
SK-OV-3 ovarian
  GI50: 2.48 µM
  TGI: 15.4 µM
SW-620 colon
  GI50: 0.479 µM
  TGI: 18.5 µM
K-562 leukemia
  GI50: 0.229 µM
  TGI: 16.4 µM
SNB-75 CNS
  GI50: 3.43 µM
  TGI: 20.9 µM
IGROV1 ovarian
  GI50: 1.66 µM
  TGI: 20.5 µM
